Data taken from PubChem BioAssay AID1117337 (Cheminformatics & Chemogenomics Research Group (CCRG), …, 2015).
Activity calls are given as the source filed them. No rule for the calls is given here. Where a SMILES comes first, the peptide text is derived from it.

System: ADSC/ECFC co-culture, VEGF-stimulated, CD31 tube area
Assay: ADSC/ECFC co-culture angiogenesis inhibition – imaging, VEGF stimulation, CD31 staining, tube area, IC50, dose response (AID 1117337)

Compound	IC50
CN(C)c1ccc(C(=C2C=CC(=[N+](C)C)C=C2)c2ccc(N(C)C)cc2)cc1	0.186 µM
CC(C)=CCC/C(C)=C/CC/C(C)=C/C(=O)OCC(=O)[C@@]1(O)CC[C@H]2[C@@H]3CCC4=CC(=O)C=C[C@]4(C)[C@H]3[C@@H](O)C[C@@]21C	3.34 µM
CCC=CCC=CCC=CCCCCCCCC(=O)O	> 10 µM (inactive)
O=C(CCCN1CCC(O)(c2cccc(C(F)(F)F)c2)CC1)c1ccc(F)cc1	> 10 µM (inactive)
Oc1ccc(/C=C/c2cc(O)cc(O)c2)cc1	> 10 µM (inactive)
Cc1cc(C(C#N)c2ccc(Cl)cc2)c(Cl)cc1NC(=O)c1cc(I)cc(I)c1O (configuration not stated)	> 10 µM (inactive)
COc1ccccc1N1CCN(CC(O)COc2cc(OC)c(OC)c(OC)c2)CC1 (configuration not stated)	> 10 µM (inactive)
Clc1cc(Cl)c(OCC#CI)cc1Cl	> 10 µM (inactive)
CC(=O)Oc1ccc(C2(c3ccc(OC(C)=O)cc3)C(=O)Nc3ccccc32)cc1	> 10 µM (inactive)
COc1cccc(CCc2ccccc2OCC(CN(C)C)OC(=O)CCC(=O)O)c1 (configuration not stated)	> 10 µM (inactive)
CC(C(O)c1ccccc1)N(C)C/C=C/c1ccccc1 (configuration not stated)	> 10 µM (inactive)
CC(C)(C)CC(C)(C)c1ccc(O)cc1	> 10 µM (inactive)
O=C1c2c(O)ccc(O)c2C(=O)c2c(NCCNCCO)ccc(NCCNCCO)c21	0.0044 µM
O=[N+]([O-])C(Br)(CO)CO	> 10 µM (inactive)
COc1ccc(Cc2nccc3cc(OC)c(OC)cc23)cc1OC	7.8 µM (inactive)
CSc1ccc2c(c1)C(N1CCN(C)CC1)Cc1ccccc1S2 (configuration not stated)	> 10 µM (inactive)
CS(=O)(=O)CCNCc1ccc(-c2ccc3ncnc(Nc4ccc(OCc5cccc(F)c5)c(Cl)c4)c3c2)o1	> 10 µM (inactive)
CC[C@]1(O)CC[C@H]2[C@@H]3CCC4=CCCC[C@@H]4[C@H]3CC[C@@]21C	6.25 µM (inactive)
COc1ccc2cc1Oc1ccc(cc1)C[C@H]1c3c(cc4c(c3Oc3cc5c(cc3OC)CCN(C)[C@@H]5C2)OCO4)CCN1C	3.02 µM
COc1c(C)c2c(c(O)c1C/C=C(\C)CCC(=O)OCCN1CCOCC1)C(=O)OC2	1.26 µM
CC(C)Cn1cnc2c1c(=O)n(C)c(=O)n2C	> 10 µM (inactive)
CCCSS/C(CCO)=C(\C)N(C=O)Cc1cnc(C)nc1N	> 10 µM (inactive)
CNS(=O)(=O)CCc1ccc2[nH]cc(C3CCN(C)CC3)c2c1	> 10 µM (inactive)
Oc1ccc(O)cc1	> 10 µM (inactive)
O=C1C(I)=CC(=C(c2cc(I)c(O)c(I)c2)c2ccccc2C(=O)O)C=C1I	> 10 µM (inactive)
CCCCCN=C(N)N/N=C/c1c[nH]c2ccc(OC)cc12	3.13 µM

Compound	IC50
COC(=O)N[C@H](C(=O)N[C@@H](Cc1ccccc1)[C@@H](O)CN(Cc1ccc(-c2ccccn2)cc1)NC(=O)[C@@H](NC(=O)OC)C(C)(C)C)C(C)(C)C	> 10 µM (inactive)
COc1ccc(-c2nc3ccc(C4=NNC(=O)CC4C)cc3[nH]2)cc1 (configuration not stated)	2.89 µM
Oc1c(I)cc(I)c2cccnc12	2.39 µM
CCN1CCC[C@H]1CNC(=O)c1c(OC)ccc(Br)c1OC	> 10 µM (inactive)
C#C[C@]1(O)CC[C@@H]2[C@@H]3CCC4=CCCC[C@@H]4[C@H]3C(=C)C[C@@]21CC	> 10 µM (inactive)
CC(C)(C)C1CCC(CC2=C(O)c3ccccc3C(=O)C2=O)CC1 (configuration not stated)	1.96 µM
CCOC(=O)C=C(C)C=CC[C@@H](C)CCCC(C)C	> 10 µM (inactive)
NC(=O)[C@@H]1CSSCCC(=O)N[C@@H](CCCCN=C(N)N)C(=O)NCC(=O)N[C@@H](CC(=O)O)C(=O)N[C@@H](Cc2c[nH]c3ccccc23)C(=O)N2CCC[C@H]2C(=O)N1 (HELM PEPTIDE1{[O=C(CCS[*:3])[*:2]].[N=C(N)NCCCC[C@H](N[*:1])C(=O)[*:2]].G.D.W.P.C.[am]}$PEPTIDE1,PEPTIDE1,1:R3-7:R3$$$V2.0)	> 10 µM (inactive)
COc1ccc2cc3[n+](cc2c1OC)CCc1cc2c(cc1-3)OCO2	2.68 µM
O=C(Nc1ccc(Oc2ccc(Cl)cc2)c(Cl)c1)c1cc(I)cc(I)c1O	> 10 µM (inactive)
S=c1nc[nH]c2nc[nH]c12	0.915 µM
Cc1c(C(=O)NN2CCCCC2)nn(-c2ccc(Cl)cc2Cl)c1-c1ccc(Cl)cc1	> 10 µM (inactive)
O=C(NOCC1CC1)c1ccc(F)c(F)c1Nc1ccc(I)cc1Cl	0.368 µM
CCCCCCCCCCCC[N+](C)(C)CCOc1ccccc1	3.38 µM
CN(C)/N=N/c1nc[nH]c1C(N)=O	4.59 µM
[O-][n+]1ccccc1SSc1cccc[n+]1[O-]	0.719 µM
CCCCCCCC/C=C\CCCCCCCCN	> 10 µM (inactive)
COc1cc([C@@H]2c3cc4c(cc3[C@@H](O[C@@H]3O[C@@H]5CO[C@@H](C)O[C@@H]5[C@H](O)[C@@H]3O)[C@H]3COC(=O)[C@H]23)OCO4)cc(OC)c1O	0.109 µM
CC(C)c1c(C(=O)Nc2ccccc2)c(-c2ccccc2)c(-c2ccc(F)cc2)n1CC[C@@H](O)C[C@@H](O)CC(=O)O	> 10 µM (inactive)
COC(=O)Nc1nc2ccc(C(=O)c3ccccc3)cc2[nH]1	0.37 µM
CC1=C(C(=O)OC(C)C)C(c2cccc([N+](=O)[O-])c2)C(C(=O)OC2CN(C(c3ccccc3)c3ccccc3)C2)=C(N)N1 (configuration not stated)	3.58 µM
O=C1c2c(O)cccc2Cc2cccc(O)c21	0.604 µM
O=C(NC1CCN(CCc2c[nH]c3ccccc23)CC1)c1ccccc1	> 10 µM (inactive)
O=C(CCBr)N1CCN(C(=O)CCBr)CC1	1.37 µM
COC(=O)C1=C(C)NC(C)=C(C(=O)OC(C)(C)CN(C)CCC(c2ccccc2)c2ccccc2)C1c1cccc([N+](=O)[O-])c1 (configuration not stated)	> 10 µM (inactive)
COC1=C(OC)C(=O)C(CCCCCCCCCCO)=C(C)C1=O	> 10 µM (inactive)

Compound	IC50
NC(=NCCCCCCN=C(N)/N=C(\N)Nc1ccc(Cl)cc1)/N=C(\N)Nc1ccc(Cl)cc1	1.35 µM
CCCOC(=O)c1cc(O)c(O)c(O)c1	> 10 µM (inactive)
CC(C)(C)c1ccc(C(O)CCCN2CCC(C(O)(c3ccccc3)c3ccccc3)CC2)cc1 (configuration not stated)	3.25 µM
CCOC(=O)[C@H](CCc1ccccc1)N[C@@H](C)C(=O)N1C(=O)N(C)C[C@H]1C(=O)O	> 10 µM (inactive)
O=C1c2ccccc2C(=O)C1C(=O)C(c1ccccc1)c1ccccc1	> 10 µM (inactive)
CN1CCC[C@@H]1CCO[C@](C)(c1ccccc1)c1ccc(Cl)cc1	> 10 µM (inactive)
O=C1CC[C@H](C(=O)N2CCCCC2)N1	> 10 µM (inactive)
Cc1nc2ccccc2n1Cc1ccc(Cl)cc1	7.38 µM (inactive)
Nc1c2ccccc2nc2ccccc12	> 10 µM (inactive)
CC[N+](CC)(CC)CCOc1ccc(/C=C/c2ccccc2)cc1	> 10 µM (inactive)
CCCCC(CC)COC(=O)CC(C(=O)OCC(CC)CCCC)S(=O)(=O)O (configuration not stated)	> 10 µM (inactive)
O[C@@H](CNC[C@H](O)[C@H]1CCc2cc(F)ccc2O1)[C@@H]1CCc2cc(F)ccc2O1	> 10 µM (inactive)
Cn1ccc2cc3c(cc21)CCN3C(=O)Nc1cccnc1	> 10 µM (inactive)
Clc1ccc(CCC(Cn2ccnc2)Sc2c(Cl)cccc2Cl)cc1 (configuration not stated)	3.53 µM
C#C[C@]1(OC(C)=O)CC[C@H]2[C@@H]3CCC4=C/C(=N/O)CC[C@@H]4[C@H]3CC[C@@]21CC	> 10 µM (inactive)
Oc1c(Cl)cc(Cl)c2cccnc12	2 µM
CCCCCCCCOc1ccccc1C(=O)Nc1ccc(C(=O)OCC[N+](C)(CC)CC)cc1	> 10 µM (inactive)
CC(C)=CCNc1ncnc2c1ncn2[C@@H]1O[C@H](CO)[C@@H](O)[C@H]1O	2.66 µM
O=C(Nc1ccc([N+](=O)[O-])cc1)Nc1ccc([N+](=O)[O-])cc1	> 10 µM (inactive)
COC(=O)Nc1nc2ccc(S(=O)c3ccccc3)cc2[nH]1 (configuration not stated)	0.288 µM
CCCn1cnc2c1c(=O)n(CCCCC(C)=O)c(=O)n2C	> 10 µM (inactive)
C=CC(C)(O)CCC=C(C)CCC=C(C)C (configuration not stated)	> 10 µM (inactive)
Oc1c(Br)cc(Br)c2cccnc12	> 10 µM (inactive)
O=C(c1ccc(F)cc1)C1CCN(CCn2c(=O)[nH]c3ccccc3c2=O)CC1	> 10 µM (inactive)
C=C(C)[C@H]1Cc2c(ccc3c2O[C@@H]2COc4cc(OC)c(OC)cc4[C@@H]2C3=O)O1	0.0257 µM
